Source: ChEMBL document CHEMBL5532719, “Insight on Some Newly Synthesized Trisubstituted Imidazolinones as VEGFR-2 Inhibitors” (ACS Med Chem Lett, 2024)
pIC50: −log10 of the molar value. In brackets after ≈: the same amount, converted by molar mass.

How the values were obtained:
[1] = molecular target: T1, Vascular endothelial growth factor receptor 2 (Homo sapiens, UniProt P35968); assay: Inhibition of recombinant human VEGFR-2 using poly (Glu,Tyr) 4:1 as substrate in presence of ATP
[2] = tested on: MCF7; assay: Cytotoxicity against human MCF7 cells incubated for 72 hrs by MTT assay; assay type: functional, cell-based; settings: MCF7, 72 h
[3] = tested on: A549; assay: Cytotoxicity against human A549 cells incubated for 72 hrs by MTT assay; assay type: functional, cell-based; settings: A549, 72 h
[4] = molecular target: T1, Vascular endothelial growth factor receptor 2; assay: Inhibition of recombinant VEGFR2 (unknown origin) using poly (Glu,Tyr) 4:1 as substrate measured after 45 mins in presence of ATP by microplate reader analysis
[5] = Cytotoxicity against human WI-38 cells incubated for 72 hrs by MTT assay; assay type: toxicity, cell-based
[6] = Selectivity index, ratio of IC50 for human WI-38 cells to IC50 for human MCF7 cells; assay type: toxicity; settings: WI-38 cells versus MCF7 cells, read-out: Ratio IC50
[7] = Selectivity index, ratio of IC50 for human WI-38 cells to IC50 for human A549 cells; assay type: toxicity; settings: WI-38 cells versus A549 cells, read-out: Ratio IC50
[8] = tested on: MCF7; assay: Induction of cell cycle arrest in human MCF7 cells assessed as G1 phase arrest at 5.86 uM incubated for 72 hrs by PI staining based flow cytometry analysis (reference value: 11.07%); assay type: functional
[9] = tested on: MCF7; assay: Induction of cell cycle arrest in human MCF7 cells assessed as G2/M phase arrest at 5.86 uM incubated for 72 hrs by PI staining based flow cytometry analysis (reference value: 13.52%); assay type: functional
[10] = tested on: MCF7; assay: Induction of apoptosis in human MCF7 cells assessed as early apoptotic cells at 5.86 uM incubated for 72 hrs by Annexin-V/PI staining based flow cytometry analysis (reference value: 0.06%); assay type: functional
[11] = tested on: MCF7; assay: Induction of apoptosis in human MCF7 cells assessed as late apoptotic cells at 5.86 uM incubated for 72 hrs by Annexin-V/PI staining based flow cytometry analysis (reference value: 0.68%); assay type: functional
[12] = tested on: MCF7; assay: Induction of apoptosis in human MCF7 cells assessed as necrotic cells at 5.86 uM incubated for 72 hrs by Annexin-V/PI staining based flow cytometry analysis (reference value: 0.02%); assay type: functional
[13] = Cytotoxicity against HUVECs incubated for 72 hrs by MTT assay; assay type: toxicity, cell-based; settings: human, HUVEC cells
[14] = tested on: HUVEC; assay: Inhibition of cell migration in human HUVECs assessed as reduction in wound closure percentage (reference value: 97.037%); assay type: functional; design: scale not given: the % may be the effect or the level left
[15] = tested on: MCF7; assay: Cytotoxicity against human MCF-7 cells; assay type: functional, cell-based
[16] = tested on: HepG2; assay: Cytotoxicity against human HepG2 cells; assay type: functional, cell-based

T1 sequence (P35968 whole entry): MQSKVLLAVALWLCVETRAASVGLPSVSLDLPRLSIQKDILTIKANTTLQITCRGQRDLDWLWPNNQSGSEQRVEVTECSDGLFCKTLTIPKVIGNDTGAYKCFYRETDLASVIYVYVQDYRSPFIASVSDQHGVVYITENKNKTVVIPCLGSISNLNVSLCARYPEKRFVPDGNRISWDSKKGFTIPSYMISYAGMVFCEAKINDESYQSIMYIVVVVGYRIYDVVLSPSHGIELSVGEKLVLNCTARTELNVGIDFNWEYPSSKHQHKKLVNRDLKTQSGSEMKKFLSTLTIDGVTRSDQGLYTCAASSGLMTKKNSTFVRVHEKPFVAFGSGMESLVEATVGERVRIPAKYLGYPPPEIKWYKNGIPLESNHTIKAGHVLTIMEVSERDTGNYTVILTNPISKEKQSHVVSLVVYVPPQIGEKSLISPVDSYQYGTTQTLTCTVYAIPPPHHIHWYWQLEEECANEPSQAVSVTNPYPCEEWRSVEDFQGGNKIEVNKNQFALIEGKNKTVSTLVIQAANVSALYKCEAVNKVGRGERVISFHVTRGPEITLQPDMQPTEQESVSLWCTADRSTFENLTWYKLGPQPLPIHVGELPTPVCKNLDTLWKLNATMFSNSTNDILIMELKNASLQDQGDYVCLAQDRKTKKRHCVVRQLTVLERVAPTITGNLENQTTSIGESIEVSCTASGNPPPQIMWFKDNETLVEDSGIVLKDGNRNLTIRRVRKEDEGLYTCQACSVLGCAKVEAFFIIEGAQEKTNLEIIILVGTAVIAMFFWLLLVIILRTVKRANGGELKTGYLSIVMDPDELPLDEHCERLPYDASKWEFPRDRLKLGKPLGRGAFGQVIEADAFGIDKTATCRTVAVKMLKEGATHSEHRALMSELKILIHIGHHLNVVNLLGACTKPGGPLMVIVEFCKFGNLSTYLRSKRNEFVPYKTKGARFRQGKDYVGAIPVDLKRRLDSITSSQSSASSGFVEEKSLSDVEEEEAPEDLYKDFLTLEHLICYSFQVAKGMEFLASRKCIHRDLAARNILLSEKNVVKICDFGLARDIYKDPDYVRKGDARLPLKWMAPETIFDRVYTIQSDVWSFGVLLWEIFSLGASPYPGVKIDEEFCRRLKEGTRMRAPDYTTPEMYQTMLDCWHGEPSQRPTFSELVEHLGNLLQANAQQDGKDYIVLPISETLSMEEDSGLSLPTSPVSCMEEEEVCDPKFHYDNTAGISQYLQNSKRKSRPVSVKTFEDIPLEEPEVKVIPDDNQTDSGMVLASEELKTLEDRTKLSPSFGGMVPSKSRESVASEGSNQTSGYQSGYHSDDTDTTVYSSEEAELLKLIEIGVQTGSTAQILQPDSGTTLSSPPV

SMILES	pIC50 [2]	pIC50 [3]	pIC50 [4]	further results
CCOC(=O)/C(C#N)=C(\c1ccc(O)cc1)N1CC(=O)N(/N=C(\C)c2ccc(O)cc2O)C1=S				pIC50 [1]: 7.70
C/C(=N\N1C(=O)CNC1=S)c1ccc(O)cc1O				pIC50 [1]: 7.60
Cc1cc(NS(=O)(=O)c2ccc(NC(=O)COC(=O)c3ccc(N4C(=O)/C(=C/c5ccc(N(C)C)cc5)N=C4c4ccccc4)cc3)cc2)no1	4.57	4.51		
CN(C)c1ccc(/C=C2\N=C(c3ccc(Cl)cc3)N(c3ccc(S(=O)(=O)Nc4ncccn4)cc3)C2=O)cc1	5.23	5.12	7.15	IC50 at 72 h [5]: 21.6 µM; selectivity ratio [6]: 3.69; selectivity ratio [7]: 2.88; Activity [8]: 22.68%; Activity [9]: 35.17%; Activity [10]: 22.84%; Activity [11]: 42.21%; Activity [12]: 1.64%; IC50 at 72 h [13]: 179 µM; Activity [14]: 65.926%
CN(C)c1ccc(/C=C2\N=C(c3ccccc3)N(c3ccc(S(N)(=O)=O)cc3)C2=O)cc1	4.71	4.54	6.70	
CN(C)c1ccc(/C=C2\N=C(c3ccccc3)N(c3ccc(S(=O)(=O)Nc4ncccn4)cc3)C2=O)cc1	4.68	4.53		
CN(C)c1ccc(/C=C2\N=C(c3ccccc3)N(c3ccc(S(=O)(=O)Nc4nccs4)cc3)C2=O)cc1	4.40	4.50		
CN(C)c1ccc(/C=C2\N=C(c3ccccc3)N(c3ccc(C(=O)OCC(=O)Nc4ccc(S(=O)(=O)Nc5nccs5)cc4)cc3)C2=O)cc1	4.58	4.78		
CN(C)c1ccc(/C=C2\N=C(c3ccccc3)N(c3ccc(S(=O)(=O)NC(=N)N)cc3)C2=O)cc1	4.43	4.21		
O=C1/C(=C/c2ccc(O)c(Br)c2)N=C(c2ccc(Cl)cc2)N1c1ccccc1				IC50 [15]: 18 µg/mL (≈ 39.7 µM); IC50 [16]: 6.1 µg/mL (≈ 13.4 µM)
Cc1cc(NS(=O)(=O)c2ccc(N3C(=O)/C(=C/c4ccc(N(C)C)cc4)N=C3c3ccc(Cl)cc3)cc2)no1	4.94	4.37	6.96	
CN(C)c1ccc(/C=C2\N=C(c3ccc(Cl)cc3)N(c3ccc(C(=O)OCC(=O)Nc4ccc(S(=O)(=O)Nc5ncccn5)cc4)cc3)C2=O)cc1	4.55	4.24		
CN(C)c1ccc(/C=C2\N=C(c3ccccc3)N(c3ccc(C(=O)OCC(=O)Nc4ccc(S(N)(=O)=O)cc4)cc3)C2=O)cc1	4.75	4.85	7.70	
CN(C)c1ccc(/C=C2\N=C(c3ccc(Cl)cc3)N(c3ccc(S(=O)(=O)NC(=N)N)cc3)C2=O)cc1	4.87	4.56	6.80	
CC(=O)Oc1ccc(/C=C2\N=C(c3ccc(Cl)cc3)N(c3ccccc3)C2=O)cc1Br				IC50 [15]: 17.8 µg/mL (≈ 35.9 µM); IC50 [16]: 4.6 µg/mL (≈ 9.28 µM)
CN(C)c1ccc(/C=C2\N=C(c3ccc(Cl)cc3)N(c3ccc(S(=O)(=O)Nc4nccs4)cc3)C2=O)cc1	5.06	4.79	7.00	
CN(C)c1ccc(/C=C2\N=C(c3ccc(Cl)cc3)N(c3ccc(C(=O)OCC(=O)Nc4ccc(S(N)(=O)=O)cc4)cc3)C2=O)cc1	4.62	4.60	6.44	
Cc1cc(NS(=O)(=O)c2ccc(NC(=O)COC(=O)c3ccc(N4C(=O)/C(=C/c5ccc(N(C)C)cc5)N=C4c4ccc(Cl)cc4)cc3)cc2)no1	4.38	4.34		
CN(C)c1ccc(/C=C2\N=C(c3ccccc3)N(c3ccc(C(=O)OCC(=O)Nc4ccc(S(=O)(=O)Nc5ncccn5)cc4)cc3)C2=O)cc1	4.54	4.56		
Cc1cc(NS(=O)(=O)c2ccc(N3C(=O)/C(=C/c4ccc(N(C)C)cc4)N=C3c3ccccc3)cc2)no1	5.01	5.00	6.85	
CN(C)c1ccc(/C=C2\N=C(c3ccccc3)N(c3ccc(C(=O)OCC(=O)Nc4ccc(S(=O)(=O)NC(=N)N)cc4)cc3)C2=O)cc1	4.56	4.41		
CN(C)c1ccc(/C=C2\N=C(c3ccc(Cl)cc3)N(c3ccc(S(N)(=O)=O)cc3)C2=O)cc1	4.94	4.54	7.00	
CN(C)c1ccc(/C=C2\N=C(c3ccc(Cl)cc3)N(c3ccc(C(=O)OCC(=O)Nc4ccc(S(=O)(=O)NC(=N)N)cc4)cc3)C2=O)cc1	4.76	4.70		
CN(C)c1ccc(/C=C2\N=C(c3ccc(Cl)cc3)N(c3ccc(C(=O)OCC(=O)Nc4ccc(S(=O)(=O)Nc5nccs5)cc4)cc3)C2=O)cc1	5.00	4.89	6.96	
COc1cccc2c1C(=O)c1c(O)c3c(c(O)c1C2=O)C[C@@](O)(C(=O)CO)C[C@@H]3O[C@H]1C[C@H](N)[C@H](O)[C@H](C)O1 [DOXORUBICIN]	5.19	5.30		
CNC(=O)c1cc(Oc2ccc(NC(=O)Nc3ccc(Cl)c(C(F)(F)F)c3)cc2)ccn1 [SORAFENIB]	5.31	5.13		IC50 at 72 h [13]: 89.8 µM; Activity [14]: 57.037%
